In patent publication US20170165236A1, “SELECTIVE SPHINGOSINE 1 PHOSPHATE RECEPTOR MODULATORS AND COMBINATION THERAPY THEREWITH” (Celgene International II Sàrl, priority 2013, published 2017):

Experiments:
[1] = Therapeutic index, 5 or 14 day toxicology studies in rats (lung to body weight); format: in vivo, Sprague-Dawley rats
Experimental: All studies were conducted in non-fasted male and female Sprague-Dawely rats (Simonsen Laboratories). Rats were housed in an AAALAC accredited facility and the research was approved by the facilities Institutional Animal Care and Use Committee (IACUC). The animals were acclimated to the laboratory for at least 5 days prior to initiation of experiments.
The compounds listed in Table 6 were formulated as suspensions in a vehicle consisting of 0.5% carboxymethyl cellulose (Acros Organics) in purified water (pH adjusted to ˜2.2 with hydrochloric acid). The same formulation was used in the rat lymphopenia and toxicology studies described below. The concentration of each compound in suspension was verified to be within ±10% of the target concentration by HPLC-UV.
Prior to the conduct of toxicology studies, the effect of three to five daily doses of each compound on peripheral T-cell counts of female rats was determined (see lymphopenia measurements in rats above). In these lymphopenia studies, blood samples were collected onto EDTA at intervals after the final study dose. The collection times were not identical for each study; however, all studies included a sample collected 24 hours after the final dose. The lymphopenia data was used as a biomarker to select equally pharmacologically active doses for the subsequent toxicology study. […]

[2] = biological target: S1P1/EDG1 (Homo sapiens, UniProt P21453); assay: S1P1 CRE-bla CHOK1 reporter assay, inhibition of Forskolin induced cAMP; format: cell-based; conditions: CRE-bla CHOK1 cells, with Forskolin; read-out: S1P1 agonist value (EC50)
S1P1/EDG1, sequence (P21453 whole entry): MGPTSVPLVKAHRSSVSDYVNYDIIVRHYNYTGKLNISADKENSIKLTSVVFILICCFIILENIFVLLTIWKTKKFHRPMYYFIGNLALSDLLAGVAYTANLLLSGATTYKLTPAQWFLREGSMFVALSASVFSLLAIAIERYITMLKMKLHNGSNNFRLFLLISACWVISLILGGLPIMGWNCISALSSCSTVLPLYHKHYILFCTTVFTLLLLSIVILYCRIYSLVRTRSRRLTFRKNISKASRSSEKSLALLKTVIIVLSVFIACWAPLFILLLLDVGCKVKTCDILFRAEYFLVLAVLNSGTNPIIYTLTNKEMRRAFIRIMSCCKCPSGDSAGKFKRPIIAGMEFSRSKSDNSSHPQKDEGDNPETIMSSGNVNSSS
Experimental: Generation of S1P1-Mediated Inhibition of cAMP Reporter Assay
S1P1/pcDNA3.1 was transfected into the CRE-bla CHO K1 (Invitrogen) cell line, and stable single cell clones were selected using standard techniques.
S1P1 CRE-Bla CHOK1 Reporter Assay—Characterization of S1P1 Agonists
Cells were seeded into 384-well black wall/clear bottom plates at 10^4 cells/well/19.5 μl assay media (DMEM-phenol free, 0.5% charcoal/dextran stripped serum, 2 mM glutamine, 0.1 mM NEAA, 1 mM Na-Pyruvate, 25 mM Hepes) and incubated for 18 hrs at 37° C. in 5% CO2. Dose response curves (10-point) were generated in 10 mM Hepes, 0.1% Pluronic F127, in the presence of Forskolin. Cells were treated with 0.5 μl compound in the presence of 2 μM Forskolin for 4 hrs at 37° C. The FRET-based β-lactamase fluorescent substrate (LiveBLAzer™-FRET B/G Loading Kit CC4-AM; Invitrogen) was prepared according to manufacturer's directions, and incubated with cells for 2 hrs at room temperature. […] Data was analyzed by non-linear regression to determine the EC50 for inhibition of Forskolin induced cAMP.

[3] = biological target: T1, S1P2 (Homo sapiens, UniProt O95136); assay: Specificity over other S1P receptors: S1P2 CRE-bla CHOK1; format: cell-based; conditions: S1P2 CRE-bla CHOK1, without Forskolin; read-out: S1P2 agonist value (EC50)
T1 construct: expressed in transfected cells; host or cells: CRE-bla CHOK1
T1 sequence (O95136 whole entry, species assumed): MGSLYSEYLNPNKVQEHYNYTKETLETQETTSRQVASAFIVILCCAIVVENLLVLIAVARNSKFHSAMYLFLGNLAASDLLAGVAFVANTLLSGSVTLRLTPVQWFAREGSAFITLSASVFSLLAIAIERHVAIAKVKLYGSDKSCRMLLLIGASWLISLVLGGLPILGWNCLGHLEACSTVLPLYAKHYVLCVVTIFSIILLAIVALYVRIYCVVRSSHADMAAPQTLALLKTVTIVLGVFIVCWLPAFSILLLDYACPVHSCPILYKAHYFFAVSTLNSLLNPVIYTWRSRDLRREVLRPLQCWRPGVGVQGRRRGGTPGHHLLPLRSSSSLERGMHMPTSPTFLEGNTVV
Experimental: (§1) Cells were seeded into 384-well black wall/clear bottom plates at 10^4 cells/well/19.5 μl assay media (DMEM-phenol free, 0.5% charcoal/dextran stripped serum, 2 mM glutamine, 0.1 mM NEAA, 1 mM Na-Pyruvate, 25 mM Hepes) and incubated for 18 hrs at 37° C. in 5% CO2. Dose response curves (10-point) were generated in 10 mM Hepes, 0.1% Pluronic F127, in the presence of Forskolin. Cells were treated with 0.5 μl compound in the presence of 2 μM Forskolin for 4 hrs at 37° C. The FRET-based β-lactamase fluorescent substrate (LiveBLAzer™-FRET B/G Loading Kit CC4-AM; Invitrogen) was prepared according to manufacturer's directions, and incubated with cells for 2 hrs at room temperature. Plates were read at Ex:410/Em:458 and Ex:410/Em:522, and the response ratio determined. Data was analyzed by non-linear regression to determine the EC50 for inhibition of Forskolin induced cAMP.
(§2) To assess compound specificity on other S1P receptors the following cell lines were used: S1P2 CRE-bla CHOK1, S1P3-Gα15 NFAT-bla HEK293T (Invitrogen), S1P4-bla TANGO U2OS (Invitrogen), S1P5-bla TANGO U2OS (Invitrogen). The same assay set up for S1P1 was used but without Forskolin. S1P4 and S1P5 assays were performed in FreeStyle Expression medium (Invitrogen). S1P5 cells were incubated for 48 hrs in prior to treatment with compound.

[4] = biological target: T2, S1P4 (Homo sapiens, UniProt O95977); assay: Specificity over other S1P receptors: S1P4-bla TANGO U2OS; format: cell-based; conditions: without Forskolin, read-out: S1P4 agonist value (EC50)
T2 construct: fused on or other part: Tango handle at the receptor's C-terminus: a TEV protease cleavage site and the Gal4-VP16 transcription factor, possibly a V2 vasopressin receptor tail; The cells also carry a beta-arrestin/TEV protease fusion and a UAS-beta-lactamase reporter
T2 sequence (O95977 1-384): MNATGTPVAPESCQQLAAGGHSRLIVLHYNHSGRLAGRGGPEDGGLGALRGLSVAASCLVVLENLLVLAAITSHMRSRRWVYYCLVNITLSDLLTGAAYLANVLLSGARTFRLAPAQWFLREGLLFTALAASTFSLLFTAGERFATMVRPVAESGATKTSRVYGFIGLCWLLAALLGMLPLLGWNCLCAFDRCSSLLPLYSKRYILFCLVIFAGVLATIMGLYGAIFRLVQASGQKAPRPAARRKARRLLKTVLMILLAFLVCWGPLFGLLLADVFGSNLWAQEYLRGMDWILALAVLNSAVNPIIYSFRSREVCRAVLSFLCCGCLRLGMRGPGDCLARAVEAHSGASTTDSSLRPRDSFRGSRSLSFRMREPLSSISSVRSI
Experimental: as §1, §2

[5] = biological target: T3, S1P5 (Homo sapiens, UniProt Q9H228); assay: Specificity over other S1P receptors: S1P5-bla TANGO U2OS; format: cell-based; conditions: without Forskolin, read-out: S1P5 agonist value (EC50)
T3 construct: fused on or other part: Tango handle at the receptor's C-terminus: a TEV protease cleavage site and the Gal4-VP16 transcription factor, possibly a V2 vasopressin receptor tail; The cells also carry a beta-arrestin/TEV protease fusion and a UAS-beta-lactamase reporter
T3 sequence (Q9H228 whole entry, the tested form may be a part): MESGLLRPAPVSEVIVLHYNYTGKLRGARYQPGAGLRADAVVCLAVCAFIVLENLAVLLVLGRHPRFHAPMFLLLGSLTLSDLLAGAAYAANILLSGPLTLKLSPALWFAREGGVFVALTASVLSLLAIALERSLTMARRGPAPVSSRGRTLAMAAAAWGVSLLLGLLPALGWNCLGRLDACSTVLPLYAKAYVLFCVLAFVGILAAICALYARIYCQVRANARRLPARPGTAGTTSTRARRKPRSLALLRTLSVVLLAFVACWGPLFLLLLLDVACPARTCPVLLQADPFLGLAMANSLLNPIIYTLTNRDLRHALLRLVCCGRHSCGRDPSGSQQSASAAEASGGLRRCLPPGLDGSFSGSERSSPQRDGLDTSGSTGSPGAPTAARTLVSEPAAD
Experimental: as §1, §2

[6] = test system: peripheral T-cell counts; assay: Lymphopenia in rats, multiple dose; format: in vivo; conditions: 24 hours after final dose of a 3-5 day multiple dose regimen
Experimental: In rats: Female rats (Simonsen Laboratories, Gilroy Calif.) were housed in an ALAAC accredited facility and the research was approved by the facilities Institutional Animal Care and Use Committee (IACUC). The animals were acclimated to the laboratory for at least 5 days prior to initiation of experiments. Rats (n=3/compound/time-point) were dosed by oral gavage with 1 mg/kg compound formulated in a vehicle consisting of 5% DMSO/5% Tween 20 and 90% 0.1N HCL. Control rats were dosed PO with the vehicle. Whole blood was collected from isoflurane anesthetized rats via the retro-orbital sinus and terminal samples were collected by cardiac puncture into EDTA. Whole blood was incubated with mouse anti-rat CD32 (BD #550271), PE-mouse anti-rat CD45R/B220 (BD #554881), PECy5-mouse anti-rat CD4 (BD #554839), and APC-mouse anti-rat CD8a (eBioscience #17-0084) for 30 minutes on ice. Red blood cells were lysed using BD Pharm Lyse Lysing buffer (#555899) and white blood cells were analyzed with a BD FACSArray. Lymphopenia was expressed as the % of white blood cells that were CD4 or CD8 positive T cells. […]
Prior to the conduct of toxicology studies, the effect of three to five daily doses of each compound on peripheral T-cell counts of female rats was determined (see lymphopenia measurements in rats above). […]

CC(C)Oc1ccc(-c2nc(-c3cccc4c3CCC4NS(=O)(=O)CCO)no2)cc1C#N (stereo in doubt) [Compound 186, (R)—N-(4-(5-(3-cyano-4-isopropoxyphenyl)-1,2,4-oxadiazol-3-yl)-2,3-dihydro-1H-inden-1-yl)-2-hydroxyethanesulfonamide]
TI 5 days ([1]; 5 day toxicology study, dose for 10% lung weight increase / dose for 50% T-cell depletion): 16
Dose Resulting in 10% increase in lung weight ([1]; oral, 5 or 14 consecutive days, interpolated from dose versus lung to body weight): 1.1 mg/kg
EC50 [2]: 0.05 nM
EC50 [3]: 1570 nM
EC50 [4]: 1210 nM
EC50 [5]: 32.3 nM
Dose Producing 50% lymphopenia [6]: 0.07 mg/kg
